Assay results from patent US20250189514A1 (priority 2022, published 2025).
Like-named read-outs stand apart in the source and are kept apart here. Where no end group is shown, it is not given here.

How the values were obtained:
[1] = system: α6/3β2β3 nAChR; type: cell-based, human
[2] = system: α6/3β2β3 nAChR
Protocol: In one embodiment, FLIPR assay is used to identify agonists of 6β2β3 nAChR (including chimeric α6/3β2β3 nAChR as described above) mediated calcium flux. In this assay, the recombinant cells are incubated with a calcium sensitive dye (such as Ca5), exposed to a test compound, and calcium flux is imaged by FLIPR^TETRA.
• Spin down cells at 300×G for 5 min, aspirate supernatant, and resuspend in 10 ml plating medium. • Seed 25,000 cells/well in 50 μL (5×10^5cells/mL). • Incubate plates for 24 hours at 30° C. with 5% CO2 in a humidified atmosphere. Day 4 FLPR Assay • Wash plate with plate washer (4 washes x 100 μL/wash) using compound dilution buffer, leaving 25 μl in each well. • Add 25 μl of 2× Ca5 dye to each well. • Incubate at room temperature for 1 hr. • Wash plate with plate washer (4 washes x 100 μL/wash) using compound dilution buffer, leaving 25 μL in each well.
• Transfer plates to FLIPR for compound addition. Single addition plate of 2× agonist (25 μL). Control wells for agonists will be in column 23 and 24. […] Negative control wells received buffer+vehicle (25 μL). Functional Expression of α6β2β3 nAChR

CO[C@H]1CC=C2CCN3CCC4=C(CC(=O)OC4)[C@]23C1 [DHbE]
IC100 DHBe [1]: 10 µM
effect on nicotine-evoked calcium flux (FLIPR signal) [1]: decreases the nicotine-evoked calcium flux in a dose-dependent manner

CCN1C[C@]2(COC(=O)c3ccccc3N3C(=O)C[C@H](C)C3=O)CC[C@H](OC)[C@@]34[C@@H]5C[C@H]6[C@H](OC)[C@@H]5[C@](O)(C[C@@H]6OC)[C@](O)([C@@H](OC)[C@H]23)[C@@H]14 [MLA]
effect on nicotine-evoked calcium flux (FLIPR signal) [1]: decreases the nicotine-evoked calcium flux in a dose-dependent manner

CNC1(C)C2CCC(C2)C1(C)C (stereo not shown) [mecamylamine]
effect on nicotine-evoked calcium flux (FLIPR signal) ([1]; transfected HEK293T cells incubated at 30° C. for 24-48 hour, antagonist at various concentration 3 min, then nicotine EC80 3.5 min, FIGS. 2A-2D): decreases the nicotine-evoked calcium flux in a dose-dependent manner

CN1CCCC1c1cccnc1 (stereo not shown) [nicotine]
nicotine EC80 ([2]; 2nd addition in concentration response curve experiment): 236 nm
EC80 nicotine ([2]; concentration used as agonist challenge in antagonist protocol): 236 nM

α-conotoxin MII (GCCSNPVCHLEHSNLC; ends and bridges not checked; cysteine pairing not given here; UniProt P56636 49-64, looked up)
effect on nicotine-evoked calcium flux (FLIPR signal) [1]: decreases the nicotine-evoked calcium flux in a dose-dependent manner
